Test results as given in ChEMBL document CHEMBL4819093, “Discovery of 1-[2-(1-methyl-1H-pyrazol-5-yl)-[1,2,4]triazolo[1,5-a]pyridin-6-yl]-3-(pyridin-4-ylmethyl)urea as a potent NAMPT (nicotinamide phosphoribosyltransferase) activator with attenuated CYP inhibition” (Bioorg Med Chem Lett, 2021).
≈ marks a conversion by molar mass, not a printed value.

Tests used:
[1] = Permeability of the compound at pH 5 by PAMPA
CYP1A2 = target: T1, CYP1A2 (Homo sapiens, UniProt P05177); experiment: Inhibition of CYP1A2 (unknown origin) at 10 uM measured after 10 mins; type: ADME
T1 sequence (P05177 whole entry): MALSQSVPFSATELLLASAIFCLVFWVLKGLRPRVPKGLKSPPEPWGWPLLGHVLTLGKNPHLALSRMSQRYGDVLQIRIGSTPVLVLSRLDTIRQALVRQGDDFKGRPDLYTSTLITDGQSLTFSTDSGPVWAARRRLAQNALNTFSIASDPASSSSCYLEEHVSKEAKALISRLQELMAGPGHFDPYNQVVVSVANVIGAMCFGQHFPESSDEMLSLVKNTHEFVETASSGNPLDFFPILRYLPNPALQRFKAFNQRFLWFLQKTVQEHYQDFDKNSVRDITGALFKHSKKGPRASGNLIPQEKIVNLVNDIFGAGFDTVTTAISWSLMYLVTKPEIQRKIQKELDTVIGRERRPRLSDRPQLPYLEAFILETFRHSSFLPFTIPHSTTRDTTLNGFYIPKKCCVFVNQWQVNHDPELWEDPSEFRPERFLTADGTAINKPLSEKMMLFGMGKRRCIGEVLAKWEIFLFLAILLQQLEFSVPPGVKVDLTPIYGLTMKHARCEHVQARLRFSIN

CYP2D6 = CYP2D6 (Homo sapiens, UniProt P10635); experiment: Inhibition of CYP2D6 (unknown origin) at 10 uM measured after 10 mins; type: ADME
[2] = 1-Octanol/PBS buffer distribution coefficient, log D of the compound at pH 7.4
[3] = Metabolic stability in human microsome assessed as parent compound remaining at 1 uM measured after 30 mins; conditions: microsomes
CYP3A4 = CYP3A4 (Homo sapiens, UniProt P08684); experiment: Inhibition of CYP3A4 (unknown origin) at 10 uM measured after 10 mins; type: ADME
CYP2C9 = CYP2C9 (Homo sapiens, UniProt P11712); experiment: Inhibition of CYP2C9 (unknown origin) at 10 uM measured after 10 mins; type: ADME
[4] = Metabolic stability in mouse microsome fraction assessed as parent compound remaining at 1 uM measured after 30 mins; conditions: microsomes
[5] = Permeability of the compound at pH 7.4 by PAMPA
[6] = target: T2, Nicotinamide phosphoribosyltransferase (Homo sapiens, UniProt P43490); experiment: Inhibition of human NAMPT assessed as decrease in NMN production by fluorescence based analysis
[7] = target: T2, Nicotinamide phosphoribosyltransferase; experiment: Activation of human NAMPT assessed as increase in NMN production by fluorescence based analysis
hERG (KCNH2) [8] = target: T3, hERG (KCNH2) (Homo sapiens, UniProt Q12809); experiment: Inhibition of human ERG at 10 uM
hERG (KCNH2) [9] = target: T3, hERG (KCNH2); experiment: Inhibition of human ERG at 30 uM
in vivo [10] = conditions: C57BL/6N, mouse, po, 10 mg/kg
[11] = Solubility of the compound at pH 6.8; conditions: buffer
[12] = Half life in C57BL/6N mouse at 10 mg/kg, po; conditions: in vivo
in vivo [13] = conditions: C57BL/6N, mouse, po, 10 mg/kg; remark: listed apart in the source
hERG (KCNH2) [14] = target: T3, hERG (KCNH2); experiment: Inhibition of human ERG at 3 uM
[15] = Solubility of the compound at pH 1.2; conditions: buffer

Sequence of CYP2D6 (P10635 whole entry): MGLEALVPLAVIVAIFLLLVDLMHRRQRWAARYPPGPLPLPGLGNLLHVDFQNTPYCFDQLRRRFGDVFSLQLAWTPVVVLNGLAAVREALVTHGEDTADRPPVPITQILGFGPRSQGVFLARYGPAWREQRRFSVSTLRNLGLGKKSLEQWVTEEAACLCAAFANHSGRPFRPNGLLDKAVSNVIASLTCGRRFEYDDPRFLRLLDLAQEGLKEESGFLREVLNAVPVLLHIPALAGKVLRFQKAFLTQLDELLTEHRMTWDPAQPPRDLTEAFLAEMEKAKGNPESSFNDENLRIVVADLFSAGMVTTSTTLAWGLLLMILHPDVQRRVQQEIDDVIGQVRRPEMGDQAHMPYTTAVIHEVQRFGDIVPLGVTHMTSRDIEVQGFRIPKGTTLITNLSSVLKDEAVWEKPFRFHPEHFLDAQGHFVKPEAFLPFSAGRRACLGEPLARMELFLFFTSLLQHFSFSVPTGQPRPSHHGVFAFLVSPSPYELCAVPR
T2 sequence (P43490 whole entry): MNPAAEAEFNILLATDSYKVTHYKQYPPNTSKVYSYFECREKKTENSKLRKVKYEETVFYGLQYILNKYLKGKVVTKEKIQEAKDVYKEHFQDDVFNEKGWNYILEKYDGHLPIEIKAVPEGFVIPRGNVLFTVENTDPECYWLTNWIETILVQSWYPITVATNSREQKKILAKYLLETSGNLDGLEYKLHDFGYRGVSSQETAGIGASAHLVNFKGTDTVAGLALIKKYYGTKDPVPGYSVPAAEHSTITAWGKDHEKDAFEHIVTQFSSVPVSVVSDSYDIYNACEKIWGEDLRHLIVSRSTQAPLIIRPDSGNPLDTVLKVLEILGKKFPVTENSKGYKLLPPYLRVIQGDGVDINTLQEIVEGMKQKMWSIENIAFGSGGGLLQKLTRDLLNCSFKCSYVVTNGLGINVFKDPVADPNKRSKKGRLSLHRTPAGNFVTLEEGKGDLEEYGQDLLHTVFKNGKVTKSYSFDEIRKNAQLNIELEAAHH
Sequence of CYP3A4 (P08684 whole entry): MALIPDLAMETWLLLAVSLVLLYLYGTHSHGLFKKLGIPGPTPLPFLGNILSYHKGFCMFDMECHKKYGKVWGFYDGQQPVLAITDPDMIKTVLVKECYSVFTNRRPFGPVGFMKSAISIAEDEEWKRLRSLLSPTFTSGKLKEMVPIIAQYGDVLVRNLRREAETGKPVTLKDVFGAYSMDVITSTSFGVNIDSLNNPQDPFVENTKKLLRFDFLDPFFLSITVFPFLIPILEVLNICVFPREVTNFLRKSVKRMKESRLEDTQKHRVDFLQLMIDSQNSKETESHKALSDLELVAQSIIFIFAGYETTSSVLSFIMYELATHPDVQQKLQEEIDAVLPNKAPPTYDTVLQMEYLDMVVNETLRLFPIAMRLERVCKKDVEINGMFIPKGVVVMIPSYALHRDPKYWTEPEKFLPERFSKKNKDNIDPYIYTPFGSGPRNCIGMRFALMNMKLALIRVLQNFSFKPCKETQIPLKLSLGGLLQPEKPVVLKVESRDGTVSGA
Sequence of CYP2C9 (P11712 whole entry): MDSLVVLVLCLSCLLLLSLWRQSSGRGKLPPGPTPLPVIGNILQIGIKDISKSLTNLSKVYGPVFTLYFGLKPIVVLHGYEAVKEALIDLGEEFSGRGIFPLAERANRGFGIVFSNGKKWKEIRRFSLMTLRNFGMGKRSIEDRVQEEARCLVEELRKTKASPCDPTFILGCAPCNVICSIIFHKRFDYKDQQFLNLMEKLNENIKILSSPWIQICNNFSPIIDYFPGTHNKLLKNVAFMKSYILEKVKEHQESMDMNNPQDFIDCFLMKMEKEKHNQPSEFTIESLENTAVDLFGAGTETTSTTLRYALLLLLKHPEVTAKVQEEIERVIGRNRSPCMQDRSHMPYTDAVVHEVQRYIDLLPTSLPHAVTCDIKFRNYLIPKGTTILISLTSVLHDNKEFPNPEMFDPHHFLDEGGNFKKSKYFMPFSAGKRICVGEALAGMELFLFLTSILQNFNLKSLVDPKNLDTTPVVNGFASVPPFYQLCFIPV
T3 sequence (Q12809 whole entry): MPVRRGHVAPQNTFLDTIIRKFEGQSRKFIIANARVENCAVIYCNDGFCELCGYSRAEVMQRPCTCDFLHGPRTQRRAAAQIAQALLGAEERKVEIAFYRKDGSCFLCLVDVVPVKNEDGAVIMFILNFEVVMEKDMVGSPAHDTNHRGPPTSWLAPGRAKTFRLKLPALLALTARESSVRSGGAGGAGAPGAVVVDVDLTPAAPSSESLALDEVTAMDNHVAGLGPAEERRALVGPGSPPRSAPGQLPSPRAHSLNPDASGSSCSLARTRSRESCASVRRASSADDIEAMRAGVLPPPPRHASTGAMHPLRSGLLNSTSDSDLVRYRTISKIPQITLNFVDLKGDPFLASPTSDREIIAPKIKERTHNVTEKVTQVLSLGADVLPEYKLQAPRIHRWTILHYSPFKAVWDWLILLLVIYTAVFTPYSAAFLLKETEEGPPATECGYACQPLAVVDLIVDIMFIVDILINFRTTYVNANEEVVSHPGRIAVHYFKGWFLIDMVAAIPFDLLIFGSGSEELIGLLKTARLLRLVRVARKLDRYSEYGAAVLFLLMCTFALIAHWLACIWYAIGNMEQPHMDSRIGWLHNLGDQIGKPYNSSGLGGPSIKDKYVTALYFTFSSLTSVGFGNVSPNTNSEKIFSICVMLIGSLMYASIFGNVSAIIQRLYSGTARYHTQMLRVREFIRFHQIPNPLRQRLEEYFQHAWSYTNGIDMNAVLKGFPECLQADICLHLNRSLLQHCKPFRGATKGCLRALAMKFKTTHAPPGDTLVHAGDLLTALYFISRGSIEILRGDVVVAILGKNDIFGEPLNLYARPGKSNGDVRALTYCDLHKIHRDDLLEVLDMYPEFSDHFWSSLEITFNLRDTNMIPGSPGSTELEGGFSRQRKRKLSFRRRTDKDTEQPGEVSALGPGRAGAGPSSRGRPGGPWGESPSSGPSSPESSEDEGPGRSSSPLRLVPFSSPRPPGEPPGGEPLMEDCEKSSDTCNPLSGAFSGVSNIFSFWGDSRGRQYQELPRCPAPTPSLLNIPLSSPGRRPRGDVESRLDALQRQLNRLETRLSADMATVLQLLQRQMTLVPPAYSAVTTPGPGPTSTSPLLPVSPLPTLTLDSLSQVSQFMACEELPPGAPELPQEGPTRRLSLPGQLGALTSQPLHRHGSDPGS

Row | SMILES | inhibition at 10 min, 10 µM (CYP1A2) [%] | inhibition at 10 min, 10 µM (CYP2D6) [%] | inhibition at 10 min, 10 µM (CYP3A4) [%] | inhibition at 10 min, 10 µM (CYP2C9) [%] | EC50 [7] [µM] | also measured
1 | O=C(NCc1ccncc1)Nc1ccc2cn(-c3ccccc3)nc2c1 | 88 | 50 | 75 | 74 | – | Papp [1]: 46 nm/s; logD [2]: 3.2; remaining at 0.5 h, 1 µM [3]: 87%; remaining at 0.5 h, 1 µM [4]: 83%; Papp [5]: > 50 nm/s
2 | Cc1ccc(C(=O)N2CCc3cc(NC(=O)NCc4cccnc4)ccc32)cc1 | – | – | – | – | – | IC50 [6]: 0.032 µM
3 | O=C(NCc1ccncc1)Nc1ccc2cc(-c3ccccc3)nn2c1 | 81 | 70 | 53 | 78 | – | –
4 | O=C(NCc1cnco1)Nc1ccc2nc(-c3ccccc3)nn2c1 | 69 | 13 | 0 | 59 | – | –
5 | O=C(NCc1ccncc1)Nc1ccc2nc(-c3ccccc3OC(F)(F)F)nn2c1 | 43 | 50 | 65 | 78 | – | –
6 | O=C(NCc1ccncc1)Nc1ccc2nc(-c3ccc(OC(F)(F)F)cc3)nn2c1 | 8 | 24 | 0 | 81 | > 100 | logD [2]: 4.4
7 | O=C(NCc1ccncc1)Nc1ccc2nc(-c3ccccc3)nn2c1 | 63 | 21 | 37 | 79 | 0.083 | inhibition at 10 µM (hERG (KCNH2) [8]): 51%; inhibition at 30 µM (hERG (KCNH2) [9]): 69%; Papp [1]: 14.2 nm/s; Cmax (in vivo [10]): 9.2 µM; logD [2]: 3; solubility [11]: 0.092 mg/mL (≈ 267 µM); half-life [12]: 54 min; remaining at 0.5 h, 1 µM [3]: 95%; AUC(0-t) at 24 h (in vivo [13]): 25 µM·h; remaining at 0.5 h, 1 µM [4]: 86%; inhibition at 3 µM (hERG (KCNH2) [14]): 20%; solubility [15]: > 0.68 mg/mL; Papp [5]: 27.6 nm/s
8 | CC(C)n1nccc1-c1nc2ccc(NC(=O)NCc3ccncc3)cn2n1 | 12 | 17 | 4 | 79 | – | –
9 | Cc1ccc(C(=O)N2CCc3cc(NC(=O)NCc4ccncc4)ccc32)cc1 | – | – | – | – | 0.48 | –
10 | Cn1nccc1-c1nc2ccc(NC(=O)NCc3ccncc3)cn2n1 | 15 | 16 | 25 | 42 | – | inhibition at 10 µM (hERG (KCNH2) [8]): 14%; inhibition at 30 µM (hERG (KCNH2) [9]): 25%; inhibition at 3 µM (hERG (KCNH2) [14]): 11%
11 | Cn1cccc1-c1nc2ccc(NC(=O)NCc3ccncc3)cn2n1 | 51 | 27 | 40 | 75 | 0.12 | logD [2]: 2.6
12 | O=C(NCc1ccncc1)Nc1ccc2nc(-c3cccc(OC(F)(F)F)c3)nn2c1 | 28 | 36 | 0 | 90 | – | –
13 | COCCn1nccc1-c1nc2ccc(NC(=O)NCc3ccncc3)cn2n1 | 6 | 13 | 18 | 44 | – | –
14 | O=C(NCc1cn[nH]c1)Nc1ccc2nc(-c3ccccc3)nn2c1 | 86 | 23 | 0 | 59 | – | –
15 | CC(C)c1nc2ccc(NC(=O)NCc3ccncc3)cn2n1 | – | – | – | – | 5.8 | –
